From paper PMC7435868, “Structure-Based Virtual Screening, Synthesis and Biological Evaluation of Potential FAK-FAT Domain Inhibitors for Treatment of Metastatic Cancer” (Molecules, 2020)
pIC50: −log10 of the molar value. Counter-ions that a name gives are not always drawn. Like-named read-outs stand apart in the source and are kept apart here.

What was measured:
[1] = Turbidimetric aqueous solubility; format: physicochemical; details: 37 °C, 2 h; for Estimated Precipitation Range, Calculated Mid-Range / Estimated Precipitation Range, Lower Bound / Estimated Precipitation Range, Upper Bound: buffered aqueous solution (PBS pH 7.4, 1% DMSO); for Aqueous solubility (in words): turbidimetric
Experimental: Both the estimated precipitation range (lower and upper bound) and a mid-range value were measured. Nicardipine and pyrene were used as control compounds.
The test compound was diluted in buffer to give a range of concentrations (1, 3, 10, 30, and 100 μM; final DMSO concentration 1%) and incubated at 37 °C for 2 hr.
The test compound (10 mM in DMSO) was serially diluted to give solutions of 0.1, 0.3, 1, and 3 mM in DMSO. Each test compound concentration was then further diluted 1 to 100 in buffer (typically 0.01 M phosphate buffered saline pH 7.4) so that the final DMSO concentration was 1%, and the final test compound concentrations were 1, 3, 10, 30, and 100 μM. The experiment was performed at 37 °C and each concentration was incubated in 7 replicate wells. The plates were incubated for 2 h at 37 °C before the absorbance was measured at 620 nm. Nicardipine and pyrene were included as control compounds. The solubility of nicardipine is pH dependent whereas the solubility of pyrene is pH independent.
An estimated precipitation range (lower and upper bound) and a calculated mid-range value were returned, along with any relevant comments, in the form of an Excel spreadsheet.

[2] = system: T47D; experiment: Cell viability assay (CellTiter Glo), T47D; format: cell-based, human; details: 72 h incubation, mean of independent triplicate experiments, read-out: In vitro anti-proliferative activity IC50, T47D ER+ PR+/- HER-
Experimental: (§1) The antiproliferative activity of compound I as well as its newly synthesised analogues (5a–i) was evaluated in vitro against the three human breast cancer cell lines MDA-MB-231 (TNBC), T47D (ER^+, HER^−), and BT474 (ER^+, HER^+) as well as a human pancreatic cancer cell line MIAPaCa2. The seeding of the corresponding cell lines started one day before incubation, which lasted for 72 h with the different concentrations of the tested compounds. CellTiter Glo reagent (25 μL) was added to the cell plate. The luminescence was analysed after 10 min using a PerkinElmer Envision instrument. The test compounds were used at ten different triplicate concentrations in half log increments up to 100 μM.

[3] = Microsomal metabolic stability; details: for Compound Remaining (% of 0 min), 0 min / Compound Remaining (% of 0 min), 5 min / Compound Remaining (% of 0 min), 15 min / Compound Remaining (% of 0 min), 30 min / Compound Remaining (% of 0 min), 45 min / Compound Remaining (% of 0 min), Control: human liver microsomes; for Compound Remaining (% of 0 min), Control: minus NADPH control; for Compound Remaining (% of 0 min), 45 min / Compound Remaining (% of 0 min), Control: 45 min; for half-life at 3 μM / microsomal CLint at 3 μM: human, pH 7.4
Experimental: Half-life (t1/2) values were measured at five time points.
Intrinsic clearance values (CLint) with standard error and t1⁄2 values were measured.
The final incubation volume was 50 μL. A minus cofactor control incubation was included for each compound tested where 0.1 M phosphate buffer pH 7.4 was added instead of NADPH (minus NADPH). Two control compounds were included with each species. All incubations were performed singularly for each test compound.
The reactions were stopped by transferring 20 μL of incubate to 60 μL methanol at the appropriate time points. The termination plates were centrifuged at 2500 rpm for 20 min at 4 °C to precipitate the protein.
Following protein precipitation, the sample supernatants were combined in cassettes of up to 4 compounds, the internal standard was added, and samples were analysed using Cyprotex generic LC-MS/MS conditions.
From a plot of ln peak area ratio (compound peak area/internal standard peak area) against time, the gradient of the line was determined.

[4] = system: MIAPaCa2; experiment: Cell viability assay (CellTiter Glo), MIAPaCa2; format: cell-based; details: Homo sapiens, MIA PaCa-2, 72 h incubation, mean of independent triplicate experiments, read-out: In vitro anti-proliferative activity IC50, MIAPaCa2
Experimental: as §1

[5] = system: MDA-MB-231; experiment: Cell viability assay (CellTiter Glo), MDA-MB-231; format: cell-based; details: Homo sapiens, 72 h incubation, mean of independent triplicate experiments, read-out: In vitro anti-proliferative activity IC50, MDA-MB-231 ER- PR- HER-
Experimental: as §1

[6] = system: BT474; experiment: Cell viability assay (CellTiter Glo), BT474; format: cell-based, human; details: 72 h incubation, mean of independent triplicate experiments, read-out: In vitro anti-proliferative activity IC50, BT474 ER+ PR+/- HER+
Experimental: as §1

[7] = target: hERG potassium channel (Homo sapiens, UniProt Q12809); experiment: hERG channel inhibition (IonWorks automated patch clamp, CHO-hERG cells)
Chain of hERG potassium channel (Q12809 whole entry): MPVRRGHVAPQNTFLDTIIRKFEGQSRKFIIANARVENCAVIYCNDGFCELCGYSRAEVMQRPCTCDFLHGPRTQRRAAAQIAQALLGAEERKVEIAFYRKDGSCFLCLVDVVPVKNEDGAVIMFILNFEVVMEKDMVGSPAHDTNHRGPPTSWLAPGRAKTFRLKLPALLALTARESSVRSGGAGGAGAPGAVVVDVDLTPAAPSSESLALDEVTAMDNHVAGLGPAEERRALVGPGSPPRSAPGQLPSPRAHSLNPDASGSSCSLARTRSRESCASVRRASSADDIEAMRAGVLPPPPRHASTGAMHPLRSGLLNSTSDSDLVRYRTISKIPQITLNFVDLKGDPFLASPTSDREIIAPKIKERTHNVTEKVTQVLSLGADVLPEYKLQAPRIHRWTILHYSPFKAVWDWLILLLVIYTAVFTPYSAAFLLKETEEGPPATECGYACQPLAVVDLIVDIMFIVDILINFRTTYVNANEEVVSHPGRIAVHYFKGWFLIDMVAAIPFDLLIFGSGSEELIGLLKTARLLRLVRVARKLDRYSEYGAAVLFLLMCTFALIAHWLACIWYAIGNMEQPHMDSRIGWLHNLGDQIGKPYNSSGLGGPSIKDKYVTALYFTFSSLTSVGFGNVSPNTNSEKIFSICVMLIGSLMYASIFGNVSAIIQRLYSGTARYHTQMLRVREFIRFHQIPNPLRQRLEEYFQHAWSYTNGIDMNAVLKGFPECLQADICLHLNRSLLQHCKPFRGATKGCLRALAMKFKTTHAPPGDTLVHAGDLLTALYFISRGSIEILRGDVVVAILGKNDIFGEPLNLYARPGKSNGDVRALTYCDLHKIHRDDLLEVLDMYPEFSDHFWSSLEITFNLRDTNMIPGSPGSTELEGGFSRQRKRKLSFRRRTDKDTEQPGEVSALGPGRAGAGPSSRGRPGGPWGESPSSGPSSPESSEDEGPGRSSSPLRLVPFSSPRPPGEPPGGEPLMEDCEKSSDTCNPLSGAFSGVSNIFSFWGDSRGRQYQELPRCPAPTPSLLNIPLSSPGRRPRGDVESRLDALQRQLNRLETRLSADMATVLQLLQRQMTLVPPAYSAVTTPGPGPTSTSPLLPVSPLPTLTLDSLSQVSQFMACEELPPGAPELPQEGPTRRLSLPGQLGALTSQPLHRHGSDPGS

[8] = system: MDA-MB-231, T47D, BT474, and MIAPaCa2; experiment: Cell viability assay, statements across the four cell lines; format: cell-based, human; details: for Anti-proliferative activity (in words) across the four cell lines: three human breast and one pancreatic cancer cell line, up to 100 μM
Experimental: as §1

[9] = set-up: method as in PMID 19610651, PMID 24780592; details: cited from earlier work

Compound	Estimated Precipitation Range, Calculated Mid-Range [1] [µM]	Estimated Precipitation Range, Lower Bound [1] [µM]	Estimated Precipitation Range, Upper Bound [1] [µM]	Aqueous solubility (in words) [1]	pIC50 ([2]; Homo sapiens, T47D, 72 h)	Compound Remaining (% of 0 min), 0 min [3]	Compound Remaining (% of 0 min), 5 min [3]	Compound Remaining (% of 0 min), 15 min [3]	Compound Remaining (% of 0 min), 30 min [3]	Compound Remaining (% of 0 min), 45 min [3]	Compound Remaining (% of 0 min), Control [3]	half-life at 3 μM ([3]; pooled liver microsomes) [h]	microsomal CLint at 3 μM ([3]; pooled liver microsomes) [µL/min/mg]	pIC50 [4]	pIC50 [5]	pIC50 ([6]; Homo sapiens, BT-474, 72 h)	also measured
Cl.NCC(c1ccc(OC(F)(F)F)cc1)c1ccc(OC(F)(F)F)cc1 [5h, 2,2-Bis(4-trifluoromethoxyphenyl)ethan-1-aminium chloride]	65	30	100	moderate solubility	4.88	100 % of 0 min	102 % of 0 min	108 % of 0 min	100 % of 0 min	95.8 % of 0 min	97.8 % of 0 min	9.82	2.35	4.40	4.89	4.88	
CC(C)(C)c1ccc(C(CN)c2ccc(OC(F)(F)F)cc2)cc1 (centres unmarked) [5a, 2-(4-tert-butylphenyl)-2-(4-trifluoromethoxyphenyl)ethan-1-aminium hydrochloride]	65	30	100	moderate solubility	5.31	100 % of 0 min	95.8 % of 0 min	92.3 % of 0 min	86.0 % of 0 min	81.4 % of 0 min	91.0 % of 0 min	2.6	8.91	5.26	5.25	5.30	pIC50 [7]: 5.44
CN(C)CCN(Cc1ccc(Cl)cc1)c1ccccn1 [C4, chloropyramine hydrochloride, reference compound]					< 4.00									< 4.00	4.00	< 4.00	Anti-proliferative activity (in words) across the four cell lines [8]: did not show any significant anti-proliferative activity up to a concentration of 100 μM; Concentration at which anticancer activity is displayed [9]: > 100 µM
c1cc2ccc3cccc4ccc(c1)c2c34 [pyrene, reference compound]	6.5	3	10														
CC(C)(C)c1ccc(C(CN)c2ccc(F)cc2)cc1.Cl (centres unmarked) [5c, 2-(4-tert-butylphenyl)-2-(4-fluorophenyl)ethan-1-aminium chloride]	>100	100	>100	high aqueous solubility	4.87	100 % of 0 min	94.7 % of 0 min	95.0 % of 0 min	86.1 % of 0 min	82.5 % of 0 min	98.0 % of 0 min	2.8	8.26	4.82	4.89	5.05	
CC(C)(C)c1ccc(C(CN)c2ccc(SC(F)(F)F)cc2)cc1.Cl (centres unmarked) [5b, 2-(4-tert-butylphenyl)-2-(4-(trifluoromethyl)thiophenyl)ethan-1-aminium chloride]	11.5	3	20	relatively reduced solubility comparable to pyrene	4.94									4.80	4.93	4.90	
Cl.NCC(c1ccc(Cl)cc1)c1ccc(OC(F)(F)F)cc1 (centres unmarked) [5g, 2-(4-chlorophenyl)-2-(4-trifluoromethoxyphenyl)ethan-1-aminium chloride]					4.82	100 % of 0 min	99.0 % of 0 min	96.2 % of 0 min	86.8 % of 0 min	72.8 % of 0 min	86.6 % of 0 min	1.67	13.9	4.34	4.77	4.81	
COc1ccc(C(CN)c2ccc(OC)cc2)cc1 [5i, 2,2-Bis(4-methoxyphenyl)ethan-1-aminium chloride]					4.36									4.31	4.33	4.35	pIC50 [7]: 5.22
CC(C)(C)c1ccc(C(CN)c2ccc(C(C)(C)C)cc2)cc1.Cl [5f, 2,2-Bis(4-tert-butylphenyl)ethan-1-aminium chloride]	3.75	1	6.5	relatively reduced solubility comparable to pyrene	5.33	100 % of 0 min	97.2 % of 0 min	92.2 % of 0 min	88.0 % of 0 min	80.7 % of 0 min	88.0 % of 0 min		9.34	5.28	5.30	5.34	pIC50 [2]: 5.34; pIC50 ([8]; Homo sapiens, MDA-MB-231, T47D, BT474, and MIAPaCa2, read-out: IC50 values range across cell lines): 5.28 to 5.34; Anti-proliferative activity (in words) across the four cell lines [8]: low micromolar antiproliferative activity; half-life at 3 μM ([3]; microsomes): 2.47 h; pIC50 [7]: < 4.60; pIC50 [6]: 5.33

The next lines start with results.

Estimated Precipitation Range, Calculated Mid-Range [1] [µM]	Estimated Precipitation Range, Lower Bound [1] [µM]	Estimated Precipitation Range, Upper Bound [1] [µM]	Aqueous solubility (in words) [1]	pIC50 ([2]; Homo sapiens, T47D, 72 h)	Compound Remaining (% of 0 min), 0 min [3]	Compound Remaining (% of 0 min), 5 min [3]	Compound Remaining (% of 0 min), 15 min [3]	Compound Remaining (% of 0 min), 30 min [3]	Compound Remaining (% of 0 min), 45 min [3]	Compound Remaining (% of 0 min), Control [3]	half-life at 3 μM ([3]; pooled liver microsomes) [h]	microsomal CLint at 3 μM ([3]; pooled liver microsomes) [µL/min/mg]	pIC50 [4]	pIC50 [5]	pIC50 ([6]; Homo sapiens, BT-474, 72 h)	Compound	also measured
				4.84									4.77	4.85	4.82	CC(C)(C)c1ccc(C(CN)c2cccc(F)c2)cc1 (centres unmarked) [5e, 2-(4-tert-butylphenyl)-2-(3-fluorophenyl)ethan-1-aminium chloride]	
		30														COC(=O)C1=C(C)NC(C)=C(C(=O)OCCN(C)Cc2ccccc2)C1c1cccc([N+](=O)[O-])c1 (centres unmarked) [nicardipine, reference compound]	
				4.83									4.80	4.83	4.83	CC(C)(C)c1ccc(C(CN)c2ccccc2F)cc1 (centres unmarked) [5d, 2-(4-tert-butylphenyl)-2-(2-fluorophenyl)ethan-1-aminium chloride]	
